From PMC13342036, “Genomic and Proteolytic Profiling of Lacticaseibacillus sp. PRA205: Insights into PepX-Mediated Bioactive Peptide Metabolism” (Probiotics and Antimicrobial Proteins, 2025)
Where two headings read alike, the source gives them in different places.

Experiments:
blood pressure [1] = details: rats; cited from earlier work
blood pressure [2] = details: humans; cited from earlier work
ACE = details: cited from earlier work
Experimental: (§1) Considering the cleavage specificity of PepX and the presence of proline residues in many dairy-derived BPs, the ability of PepX to hydrolyse selected BPs was evaluated. Selected BPs were well-known effective inhibitors of the enzymes ACE and di-peptidyl-peptidase-IV (DPP-IV). […] These two peptides have been identified in several fermented dairy products such as yoghurt and cheeses. The other peptides, ...

[3] = tested on: di-peptidyl-peptidase-IV (DPP-IV); details: cited from earlier work
Experimental: as §1

PepX = assay: Effect of protease inhibitors (PMSF, EDTA) on partially purified PepX activity, Gly-Pro-pNA substrate; format: biochemical, Lacticaseibacillus sp. PRA205; details: pH 7.0, 37 °C; for effect on PepX enzymatic activity (decrease): inhibitor 1 mmol/L
Experimental: PepX activity in the Lcb. casei PRA205 cytoplasmic extract was assessed in a 96-well plate using glycyl-prolyl-p-nitroanilide (Gly-Pro-pNA) as a specific substrate in the absence and presence of inhibitors. The reaction mixture containing 235 µL of 50 mmol/L Tris-Cl buffer (pH 7) and 5 µL of Gly-Pro-pNA substrate (previously dissolved in the same buffer in a concentration of 6.4 mmol/L) was pre-incubated at 37 °C for 5 min, before the addition of 10 µL of cytoplasmic extract. The same reactions were also carried out in the presence of EDTA and PMSF at increasing concentrations of 0.1, 0.5, 1, 5 and 10 mmol/L. Controls contained a buffer instead of an extract. After incubation for 2 h at 37 °C, reactions were stopped with 50 µL of acetic acid (30%) and the release of pNA was measured spectrophotometrically at 405 nm.
The effect of temperature on the PepX activity was determined as described above, modifying the incubation temperature while maintaining a constant pH of 7. The assay was carried out at four temperatures: 5 °C, 35 °C, 40 °C, and 45 °C. The effect of pH on enzyme activity was evaluated at a constant temperature of 37 °C by modifying the pH of the reaction buffer. Tris-HCL buffer (50 mmol/L) was utilized for reactions at pH 4–9, whereas sodium Tris-HCL buffer (50 mmol/L) was used for the assay at pH 7.0. The effect of protease inhibitors was tested by supplementing the reaction mix with EDTA or PMSF at final concentrations of 0, 1, 2, 5, or 10 mmol/L under standard conditions (pH 7.0, 37 °C).

Val-Pro-Pro [VPP, anti-hypertensive lactotripeptide derived from β-casein]
reduction of blood pressure in vivo (blood pressure [1]): effective in vivo in reducing blood pressure
reduction of blood pressure in vivo (blood pressure [2]): effective in vivo in reducing blood pressure
ACE inhibition (ACE): potent ACE inhibitors

APFPE
DPP-IV inhibition [3]: potent DPP-IV inhibitors

O=S(=O)(F)Cc1ccccc1 [PMSF]
effect on PepX enzymatic activity (decrease) (PepX; vs control without inhibitor): more than 40%
effect on PepX enzymatic activity (PepX; inhibitor 5 mmol/L): completely abolished
effect on PepX enzymatic activity (PepX; inhibitor 10 mmol/L): completely abolished

O=C(O)CN(CCN(CC(=O)O)CC(=O)O)CC(=O)O [EDTA]
effect on PepX enzymatic activity (decrease) (PepX; vs control without inhibitor): no effect
residual PepX activity (PepX; inhibitor 10 mmol/L, vs control without inhibitor): 40%

LPPT
DPP-IV inhibition [3]: potent DPP-IV inhibitors

Ile-Pro-Pro [IPP, anti-hypertensive lactotripeptide derived from β-casein]
reduction of blood pressure in vivo (blood pressure [1]): effective in vivo in reducing blood pressure
reduction of blood pressure in vivo (blood pressure [2]): effective in vivo in reducing blood pressure
ACE inhibition (ACE): potent ACE inhibitors

IPPL
DPP-IV inhibition [3]: potent DPP-IV inhibitors
